# Reference: patent US20150099003A1, “Topiramate Sustained-Release Pharmaceutical Composition, Method for Preparing Same, and Uses Thereof” (Institute of Pharmacology and Toxicology Academy of …, priority 2012, published 2015)
# Key:
# [1] = cited from earlier work
# [2] = test system: human plasma protein; settings: plasma concentration range of 0.5-250 μg/ml; decreases with the increase of plasma concentration; cited from earlier work
# [3] = Release rate in different dissolution media (artificial gastric fluid, water, artificial intestinal fluid); type: physicochemical; settings: degradation reaction
# Method: In order to verify whether acidic, basic solvent media would influence the release rate of the sustained-release pellets of the present invention, 0.1 mol/L HCl (pH1.2) was prepared as artificial gastric fluid, […] phosphate buffer (pH6.8) was prepared as artificial intestinal fluid, and these media and water (500 ml) were used as release media, rotation speed was 100 rpm, 37° C. Samples (5 ml, supplemented with equivalent volume of media at the meantime) were taken at 1, 2, 4, 8, 12, 16, 20, 24 h, filtrated, and the subsequent filtrates were used as test solutions. High performance liquid chromatography (Appendix V D of Part II of Chinese Pharmacopoeia, 2010 Edition) was used, octylsilane-bonded silica gel was used as packing agent, 50% methanol was mobile phase, differential refractive detector was used, flow rate was 1.5 ml per minute. 200 μl of test solution was taken, injected in liquid chromatograph, the peak area of topiramate as main drug was recorded; topiramate was separately taken as control sample and measured by the same method, and accumulative release percentages of drug at different time points were calculated by external standard method.
# [4] = cited from earlier work; remark: listed apart in the source
smiles,measurement,setting,value
"CC1(C)O[C@@H]2[C@@H](CO[C@@]3(COS(N)(=O)=O)OC(C)(C)O[C@@H]23)O1 [Topiramate, 2,3,4,5-bis-O-(1-methylethylene)-β-D-fructopyranose sulfamate]",Solubility in organic solvents,"[1]; acetone, chloroform, dimethylsulfoxide and ethanol",freely soluble
same,Solubility in alkaline solution,[1]; alkaline solution having pH of 9-10 such as sodium hydroxide or sodium phosphate solutions,very freely soluble
same,pH value of saturated solution,[1]; saturated solution,6.3
same,Solubility in water,"[1]; water, room temperature",about 9.8 mg/mL
same,Solubility in water (descriptive),"[1]; water, room temperature",very slightly soluble
same,Human plasma protein binding ratio,[2],15-41%
same,Stability of topiramate in pH1.2 artificial gastric fluid,[3],unstable
same,Plasma half-life,"[4]; human, in vivo",19 to 25 h
same,Clearance for oral administration,[4]; oral administration,22 to 36 mL/min
